Data as given in PMC12155470, “Novel Tetraene Macrodiolides Are Effective Inducers of Mitochondrial Apoptosis in Jurkat Cells” (International Journal of Molecular Sciences, 2025).
Read-outs that look alike come from different tables or passages of the source.

Columns and labels:
Jurkat = assay: In vitro cytotoxic activity, 7-AAD flow cytometry, Jurkat; type: cell-based, Human; details: Homo sapiens, Jurkat, 24 h, 24 h incubation, mean ± SD, triplicate
Source text: (§1) The investigation focused on the assessment of the synthesized compounds’ toxicities, utilizing a panel of six diverse cell lines. The selection of cells was based on the specific features of their metabolism, namely, Jurkat, K562, U937, and HL60 cells are suspension cultures of oncohematologic origin, and HEK293 is a conditionally normal line transformed by adenovirus and often used as control cells along with fibroblasts. The normal fibroblast line (Wi-38) utilized in the experiment was diploid and was obtained from the lung tissue of an aborted fetus. The total cytotoxic activity of 16 compounds was studied using flow cytometry.
(§2) Human cancer cell lines, including Jurkat, K562, U937, HL60, and fibroblasts (Wi-38), were obtained from the European Authentic Cell Culture Collection and further cultured according to established standard protocols using sterile methods. The cells were cultivated in RPMI 1640 (for Jurkat and K562) and DMEM (for Wi-38 and HEK293) media (Gibco, Billings, MT, USA), with the addition of […] glutamine, 10% FBS (Sigma, Kanagawa, Japan), and 100 U/mL penicillin–streptomycin (Sigma). All cell types were cultivated in a humidified atmosphere containing 5% CO₂ at a temperature of 37 °C. Subculturing was performed at two- to three-day intervals. The cells were subsequently seeded into 24-well plates at a density of 5 × 10^4 cells per well and incubated overnight. Subsequent subculturing was then performed at two-day intervals, with a seeding density of 1 × 10^5 cells per 24-well plate, using RPMI medium with 10% FBS [49].
(§3) The dissolution of the compounds tested was initially performed in dimethyl sulfoxide (DMSO) with an initial solution of 100 mM in 10% DMSO. Subsequently, the solution was diluted in a complete culture medium, namely, Dulbecco’s medium, modified Eagle’s medium (DMEM), or Roswell Park Memorial Institute medium (RPMI). Substances were added at concentrations of 10, 1, 100, 10, 1, and 0.1 μM on the day after seeding and incubated for 24 h. Following this, the cells were washed with a phosphate-buffered saline (PBS) solution and stained with 7AAD dye, as per the manufacturer’s protocol for flow cytometry. The CC50 value, which characterizes the parameters of toxicity (i.e., the concentration of the compound required for 50% inhibition of cell viability in vitro), was calculated. logC versus % inhibition was plotted, and statistical data processing was performed using Excel and GraphPad Prism v.8.0.2 (San Diego, CA, USA, 2019). The data obtained from three independent experiments were expressed as the mean of three measurements for each concentration, with the standard deviation indicated as well. These values were then relative to the control values (0.1% DMSO), which were taken as 100%.
(§4) 7-AAD (7-aminoactinomycin D) dye (eBioscience™, San Diego, CA, USA) was used to assess cell viability. Following incubation with the test compounds, the cells were harvested, washed with a phosphate–salt buffer (PBS), and subjected to centrifugation at 400× g for five minutes. The cell sediment was resuspended in 200 μL of staining buffer for flow cytometry (PBS without calcium and magnesium, 2.5% FBS) and stained with a 1 mM 7-AAD dye solution for 15 min in the dark at room temperature. Subsequently, all samples, including experimental and control groups, were analyzed using a BD FACSAria™ III Cell Sorter flow cytometer (Milpitas, CA, USA).

K562 = assay: In vitro cytotoxic activity, 7-AAD flow cytometry, K562; type: cell-based, Human; details: Homo sapiens, K562, 24 h, 24 h incubation, mean ± SD, triplicate
Source text: as §1, §2, §3, §4

U937 = assay: In vitro cytotoxic activity, 7-AAD flow cytometry, U937; type: cell-based, Human; details: 24 h incubation, mean ± SD, triplicate
Source text: as §1, §2, §3, §4

HL60 = assay: In vitro cytotoxic activity, 7-AAD flow cytometry, HL60; type: cell-based; details: Homo sapiens, HL-60, 24 h incubation, mean ± SD, triplicate
Source text: as §1, §2, §3, §4

[1] = In vitro cytotoxic activity, 7-AAD flow cytometry, Hek293; type: cell-based; details: human, HEK293 cells, conditionally normal line, 24 h incubation, mean ± SD
Source text: as §1, §2, §3, §4

[2] = In vitro cytotoxic activity, 7-AAD flow cytometry, normal fibroblasts; type: cell-based; details: human, Wi-38 normal lung fibroblasts, normal fibroblasts Wi-38, 24 h incubation, mean ± SD, read-out: Fibrobl. (CC50)
Source text: as §1, §2, §3, §4

Jurkat cells = assay: Mitodamage assay (MitoSense Red, Annexin V-CF488A, 7-AAD); type: cell-based, Human; details: compound at CC50 concentration, four hours, MitoSense Red
Protocol: To this end, MitoSense Red, a fluorescent dye that accumulates predominantly in mitochondria and responds to changes in membrane potential, was utilized. […] Two dyes commonly employed for detecting apoptosis in cells are annexin V and 7AAD. […] Therefore, the dissipation of mitochondrial membrane potential and the associated apoptosis process in Jurkat tumor cells were analyzed in response to exposure to synthesized macrodiolides. MitoSense Red, Annexin V-CF488A, and 7-AAD were used as dyes for this analysis (see Figure 3). A flow cytometry kit (FlowCellect™ MitoDamage Kit from Millipore, Hayward, CA USA) was utilized, as it facilitates a multiparametric evaluation of three markers of cell health. These markers include changes in mitochondrial potential (early apoptosis and cell stress), phosphatidylserine expression on the cell surface (late apoptosis), and membrane permeability (cell death). The method of the simultaneous detection of mitochondrial damage was performed according to the well-known technique.  Figure 3 Detection changes in mitochondrial membrane potential (ΔΨ) and coupled early and late apoptosis in Jurkat cells treated with compounds 9d, 8d, 7d, and 6d. Staurosporine and carbonyl cyanide-m-chlorophenylhydrazone were utilized as control compounds. The addition of all the tested compounds was executed at the CC50 concentration (refer to the provided table for the cytotoxicities of the synthesized compounds). The staining of cells was conducted using MitoSense Red, Annexin V-CF488A, and 7-AAD. The incubation period lasted for a duration of four hours. The presence of three *** (p < 0.001) and two asterisks ** (p < 0.005) indicates the significance of the observed differences between the values obtained in the control sample and the samples treated with the synthesized substances (comparison was performed by one-way ANOVA). All experiments were performed in triplicate.

[3] = system: Jurkat, K562, U937, HEK293, and HeLa cell cultures; details: cited from earlier work

Row | SMILES | CC50 (Jurkat) | CC50 (K562) | CC50 (U937; Homo sapiens, U-937, 24 h) | CC50 (HL60) | CC50 at 24 h [1] | CC50 at 24 h [2] | Jurkat cells with reduced mitochondrial membrane potential (Δψ dissipation) (Jurkat cells) | CC50 ([3]; K562, HEK293, and HeLa) | CC50 ([3]; individual cell cultures Jurkat, U937) | CC50 (U937)
1 | O=C1CCCC/C=C\CC/C=C\CCCCC(=O)OCCCCCC/C=C\CC/C=C\CCCCCCO1 [Compound 9c] | 17.3 ± 1.59 nM | 14.7 ± 1.49 nM | 13.1 ± 1.31 nM | 12.8 ± 1.37 nM | 49.2 ± 4.77 nM | 59.4 ± 5.29 nM | – | – | – | –
2 | O=C1CC/C=C\CC/C=C\CCC(=O)OCCCCC/C=C\CC/C=C\CCCCCO1 [Compound 8a] | 25.3 ± 2.63 nM | 22.3 ± 2.16 nM | 23.4 ± 2.27 nM | 21.8 ± 1.96 nM | 64.3 ± 5.37 nM | 86.4 ± 7.11 nM | – | – | – | –
3 | O=C1CCC/C=C\CC/C=C\CCCC(=O)OCCCCC/C=C\CC/C=C\CCCCCO1 [Compound 8b] | 21 ± 2.34 nM | 19.2 ± 1.79 nM | 17.9 ± 1.83 nM | 18.7 ± 1.71 nM | 48.2 ± 4.34 nM | 67.2 ± 6.24 nM | – | – | – | –
4 | O=C1CCCC/C=C\CC/C=C\CCCCC(=O)OCCC/C=C\CC/C=C\CCCO1 [Compound 6c] | 22.1 ± 2.14 nM | 19.7 ± 1.63 nM | 19.2 ± 1.87 nM | 20.1 ± 1.95 nM | 42.8 ± 4.39 nM | 58.9 ± 5.81 nM | – | – | – | –
5 | O=C1CCCCC/C=C\CC/C=C\CCCCCC(=O)OCCC/C=C\CC/C=C\CCCO1 [Compound 6d] | 18.5 ± 1.78 nM | 16.9 ± 1.88 nM | 15.2 ± 1.56 nM | 15.7 ± 1.43 nM | 44.3 ± 4.21 nM | 59.4 ± 5.46 nM | 58.99% | – | – | –
6 | O=C1CCCCC/C=C\CC/C=C\CCCCCC(=O)OCCCC/C=C\CC/C=C\CCCCO1 [Compound 7d] | 18.1 ± 1.91 nM | 17.1 ± 1.84 nM | 15.1 ± 1.43 nM | 14.5 ± 1.57 nM | 48.6 ± 4.82 nM | 60.2 ± 5.21 nM | 69.26% | – | – | –
7 | O=C1CCCCCC(=O)OCCCCCC/C=C\CC/C=C\CCCCCCO1 | – | – | – | – | – | – | – | 60 to 150 nM | 10 to 20 nM | –
8 | O=C1CCCC/C=C\CC/C=C\CCCCC(=O)OCCCCC/C=C\CC/C=C\CCCCCO1 [Compound 8c] | 17.8 ± 1.73 nM | 16.9 ± 1.62 nM | 15.5 ± 1.49 nM | 14.7 ± 1.42 nM | 47.3 ± 4.22 nM | 64.8 ± 6.35 nM | – | – | – | –
9 | O=C1CC/C=C\CC/C=C\CCC(=O)OCCCC/C=C\CC/C=C\CCCCO1 [Compound 7a] | 26.4 ± 2.46 nM | 23.6 ± 2.14 nM | 22.2 ± 2.34 nM | 20.4 ± 2.07 nM | 49.9 ± 4.83 nM | 67.2 ± 6.39 nM | – | – | – | –
10 | O=C1CC/C=C\CC/C=C\CCC(=O)OCCCCCC/C=C\CC/C=C\CCCCCCO1 [Compound 9a] | 24.2 ± 2.39 nM | 20.4 ± 1.89 nM | 19.8 ± 1.97 nM | 20.2 ± 2.17 nM | 54.9 ± 5.37 nM | 79.9 ± 6.9 nM | – | – | – | –
11 | O=C1CCCCC/C=C\CC/C=C\CCCCCC(=O)OCCCCC/C=C\CC/C=C\CCCCCO1 [Compound 8d] | 16.1 ± 1.58 nM | 15.2 ± 1.46 nM | 12.2 nM | 11.1 ± 1.39 nM | 51.1 ± 5.6 nM | 63.7 ± 6.07 nM | 75.42% | – | – | 12.2 ± 1.37 nM
12 | O=C1CCC/C=C\CC/C=C\CCCC(=O)OCCCCCC/C=C\CC/C=C\CCCCCCO1 [Compound 9b] | 18.3 ± 2.04 nM | 17.3 ± 1.64 nM | 15.7 ± 1.53 nM | 15.6 ± 1.49 nM | 52 ± 5.43 nM | 61.6 ± 5.92 nM | – | – | – | –
13 | O=C1CCC/C=C\CC/C=C\CCCC(=O)OCCCC/C=C\CC/C=C\CCCCO1 [Compound 7b] | 20.3 ± 2.04 nM | 18.1 ± 1.83 nM | 17.4 ± 1.71 nM | 18.2 ± 1.76 nM | 53.1 ± 4.96 nM | 62.6 ± 5.94 nM | – | – | – | –
14 | O=C1CCCC/C=C\CC/C=C\CCCCC(=O)OCCCC/C=C\CC/C=C\CCCCO1 [Compound 7c] | 18.4 ± 1.86 nM | 16.7 ± 1.59 nM | 17.3 ± 1.62 nM | 15.3 ± 1.48 nM | 46.3 ± 3.99 nM | 59.5 ± 5.37 nM | – | – | – | –
15 | O=C1CCC/C=C\CC/C=C\CCCC(=O)OCCC/C=C\CC/C=C\CCCO1 [Compound 6b] | 21.2 ± 1.97 nM | 21.5 ± 2.01 nM | 22.4 ± 2.24 nM | 20.4 ± 2.1 nM | 46.2 ± 3.75 nM | 61.9 ± 6.27 nM | – | – | – | –
16 | O=C1CC/C=C\CC/C=C\CCC(=O)OCCC/C=C\CC/C=C\CCCO1 [Compound 6a] | 28.3 ± 2.65 nM | 24.8 ± 2.37 nM | 23.1 ± 2.11 nM | 19.8 ± 1.81 nM | 52.3 ± 5.17 nM | 76.2 ± 7.62 nM | – | – | – | –
